Data from patent US20080039533A1, “Bioactive Compositions Comprising Triazines” (3M INNOVATIVE PROPERTIES COMPANY, priority 2003, published 2008).
In brackets after ≈: the same amount, converted by molar mass.

Test: physchem
Conditions: buffer solution without triazine compound

- solubility (pH 6.05, aqueous buffer): 20 µg/mL (≈ 83.2 µM)
- solubility (pH 7.82, aqueous buffer): 1.2 µg/mL (≈ 4.99 µM)
SMILES: CC(C)Cn1cnc2c(N)nc3ccccc3c21 [Imiquimod]
